Assay results from patent US20230129034A1, “TREATMENT OF DISEASE WITH ESTERS OF SELECTIVE RXR AGONISTS” (Io Therapeutics, Inc., priority 2017, published 2023).

Key:
Assay in all cases: RXR homodimer transactivation assay (rCRBPII/RXRE-tk-Luc reporter, CV-1 cells)
Type in all cases: cell-based
RXRα = molecular target: T1, RXRα (Homo sapiens, UniProt P19793)
T1 construct: an expression construct including a full length RXRα, RXRβ, or RXRy; expressed in transfected cells; host or cells: CV-1
T1 sequence (P19793 1-462): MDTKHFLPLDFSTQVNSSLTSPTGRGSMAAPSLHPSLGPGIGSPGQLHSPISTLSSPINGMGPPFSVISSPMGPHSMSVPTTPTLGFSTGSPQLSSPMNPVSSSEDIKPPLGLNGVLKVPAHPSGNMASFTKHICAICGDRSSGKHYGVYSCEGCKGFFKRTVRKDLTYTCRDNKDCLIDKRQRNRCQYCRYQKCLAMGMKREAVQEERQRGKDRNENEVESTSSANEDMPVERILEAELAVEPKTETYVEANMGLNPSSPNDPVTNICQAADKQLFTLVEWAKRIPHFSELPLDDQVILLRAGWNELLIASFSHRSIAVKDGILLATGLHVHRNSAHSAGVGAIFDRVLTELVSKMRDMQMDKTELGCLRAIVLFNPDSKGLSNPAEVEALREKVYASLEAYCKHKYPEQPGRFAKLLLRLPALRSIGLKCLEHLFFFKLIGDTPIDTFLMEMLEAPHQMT
From the text: (§1) Data are mean values ± SE from five independent experiments.

RXRβ = molecular target: T2, RXRβ (Homo sapiens, UniProt P28702)
T2 construct: an expression construct including a full length RXRα, RXRβ, or RXRy; expressed in transfected cells; host or cells: CV-1
T2 sequence (P28702 1-533): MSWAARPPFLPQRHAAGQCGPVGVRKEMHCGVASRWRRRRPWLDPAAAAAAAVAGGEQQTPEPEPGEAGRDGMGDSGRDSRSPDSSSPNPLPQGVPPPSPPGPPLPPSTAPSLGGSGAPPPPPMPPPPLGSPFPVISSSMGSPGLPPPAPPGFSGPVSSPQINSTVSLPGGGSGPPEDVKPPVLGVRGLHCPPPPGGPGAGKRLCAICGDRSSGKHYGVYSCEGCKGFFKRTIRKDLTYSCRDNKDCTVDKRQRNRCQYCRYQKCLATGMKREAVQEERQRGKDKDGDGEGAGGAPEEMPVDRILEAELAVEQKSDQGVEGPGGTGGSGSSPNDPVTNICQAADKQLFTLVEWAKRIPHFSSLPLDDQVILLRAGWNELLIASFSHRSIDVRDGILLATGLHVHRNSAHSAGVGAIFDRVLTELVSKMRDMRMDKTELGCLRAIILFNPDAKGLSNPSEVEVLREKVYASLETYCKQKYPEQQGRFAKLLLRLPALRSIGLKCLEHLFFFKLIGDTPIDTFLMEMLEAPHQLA
From the text: as §1

RXRγ = molecular target: T3, RXRγ (Homo sapiens, UniProt P48443)
T3 construct: an expression construct including a full length RXRα, RXRβ, or RXRy; expressed in transfected cells; host or cells: CV-1
T3 sequence (P48443 1-463): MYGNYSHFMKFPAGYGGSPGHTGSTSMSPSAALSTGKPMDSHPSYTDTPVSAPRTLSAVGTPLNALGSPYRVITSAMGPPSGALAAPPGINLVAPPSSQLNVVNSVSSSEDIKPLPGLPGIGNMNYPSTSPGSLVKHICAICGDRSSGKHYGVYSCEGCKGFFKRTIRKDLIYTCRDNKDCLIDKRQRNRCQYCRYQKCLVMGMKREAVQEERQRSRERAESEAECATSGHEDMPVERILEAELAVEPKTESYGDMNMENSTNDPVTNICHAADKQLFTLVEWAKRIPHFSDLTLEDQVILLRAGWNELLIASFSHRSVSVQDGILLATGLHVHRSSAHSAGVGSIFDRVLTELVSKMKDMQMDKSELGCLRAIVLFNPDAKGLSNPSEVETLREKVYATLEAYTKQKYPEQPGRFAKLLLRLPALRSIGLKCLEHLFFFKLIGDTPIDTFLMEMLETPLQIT
From the text: as §1

[1] = CV-1 cells, 20 hours, luciferase activity

Row | Compound | EC90 (RXRα; CV-1) [nM] | Efficacy (% of 1 µM IRX4204) RXRα (RXRα; [1]) | EC90 (RXRβ; CV-1, read-out: EC90 with RXRβ) [nM] | Efficacy (% of 1 µM IRX4204) RXRγ (RXRγ) | EC90 (RXRγ; CV-1, read-out: EC90 with RXRγ) [nM] | EC50 (RXRα; [1]) [nM] | EC50 (RXRβ; [1]) [nM] | EC50 (RXRγ; [1]) [nM]
1 | CC(/C=C/[C@@H]1C[C@]1(C)c1ccc2c(c1)C(C)(C)CCC2(C)C)=C\C(=O)O [IRX4204, 3,7-dimethyl-6(S),7(S)-methano,7-[1,1,4,4-tetramethyl-1,2,3,4-tetrahydronaphth-7-yl]2(E),4(E) heptadienoic acid] | ~0.1 | 100 % of 1 µM IRX4204 | ~1 | 0.09 ±0.01 100 % of 1 µM IRX4204 | ~0.1 | – | – | –
2 | CCOC(=O)/C=C(C)/C=C/[C@@H]1C[C@]1(C)c1ccc2c(c1)C(C)(C)CCC2(C)C [IRX4204EE, 3,7-dimethyl-6(S),7(S)-methano,7-[1,1,4,4-tetramethyl-1,2,3,4-tetrahydronaphth-7-yl]2(E),4(E) heptadienoic ethyl ester] | – | – | – | – | – | > 1000 | > 1000 | > 1000
